Assay results as given in patent US9877998B2, “Uses of hypoxia-inducible factor inhibitors” (OncoImmune, Inc., priority 2009, dated 2018).

Key:
[1] = tested on: lymphoma CSC (c-Kit+Sca-1+ TGB lymphoma cells); test: Colony formation (CFU) assay of TGB lymphoma cells in 1% methylcellulose medium; assay type: cell-based, mouse; settings: for effect on lymphoma CFU (colony number): cultured lymphoma cells treated 24 hours with pharmacologically effective doses (echinomycin: low doses), drugs washed away
Method: FIG. 2. HIF addiction of CSC. a. Selective ablation of lymphoma CFU by echinomycin. The cultured lymphoma cells were treated with given doses of pharmacologically effective drugs in medium for 24 hours. After washing away the drugs, the cells were cultured in 1% methylcellulose-containing medium, and the colony number was counted after 6 to 7 days. Data shown are means and SD of triplicates and have been confirmed by 3 independent experiments. b. A reporter system for HIF activity in the TGB lymphoma. Diagram of lentiviral construct for HIF activity is shown on the top. Pause, a sequence fragment to eliminate the effect of lentiviral promoter; HRE, Hypoxia response element (SEQ ID NO: 20); TATA, TATA sequence (TATATAAT) (top). Lower left, validation of the reporter. HEK293 cells were transiently transfected with cDNA encoding mutant HIF1α (P402A/P577A) or vector control in conjunction with either HRE-driven EGFP reporter, HRE mutant reporter (SEQ ID NO: 21). The cells were analyzed by flow cytometry to detect EGFP expression 36 hours after transduction. […] IC50 of echinomycin in the inhibition of HIF1α activity in lymphoma CSC. The lymphoma cells transfected with the HRE reporter system were cultured in the presence of different concentration of echinomycin for 12 hours, the % of c-Kit^+GFP^+ cells was normalized against the untreated group (1.13%, which was defined as 100%). […] Selectivity of HIF inhibitor for CFU of lymphoma CSC over the CFU from hematopoietic progenitor cells. c-Kit^+Sca-1^+ cells from either TGB or normal bone marrow were treated with given concentration of echinomycin overnight prior to plating in the medium containing 1% methylcellulose for CFU assay. The data shown were % of untreated controls, and were means+/−S.D. of triplicates. e. Therapeutic effect of a low dose of echinomycin. Cultured lymphoma cells (1×10^6/mouse) were injected i.p. into immune competent B10.BR mice. Fourteen days later, 10 μg/Kg/Injection of echimomycin was injected at a two-day interval for a total of 5 times. Control mice received vehicle only. The mice were observed daily for survival.
FIG. 6. HIF works in concert with Notch pathway to maintain CSC. a. Inhibition of colony-forming activity of CSC. The cultured lymphoma cells were treated with given doses of L685, 458 for 24 hours. After that, the cells were cultured in 1% methylcellulose-containing medium, and the colony number was counted after 6 to 7 days. Data shown are means+/−SD of triplicate samples and are representative of those of at least 3 independent experiments. b. Enhanced Notch activity in CSC, as indicated by the levels of Hes1 transcripts. The lymphoma cells from spleen with tumor in TGB transgenic mouse were sorted into c-kit^+Sca-1^+ or c-kit^−Sca-1^− fractions. The expressions of Hes1αnd mRNA in these two fractions were measured by real time PCR. c. Inhibition of Notch activity by 3 distinct HIF inhibitors. Cultured TGB lymphoma cells were stained with APC conjugated anti-c-Kit-antibody and enriched twice using anti-APC coated MACS beads according to manufacturer's protocol (Militenyi Biotec). The c-kit positive cells-enriched samples (60.4% c-Kit^+ cells) were treated with inhibitors of HIF for 16 hours. The mRNA from the treated cells were extracted for quantitation by real-time PCR. Data shown are means+/−SD of triplicates and represent those from at least 3 independent experiments. 2ME2, 2-methoxyestradiol; GA, geldamycin. d-g. […] A truncated Notch gene with potent dominant negative activity in inhibiting the expression of Notch target gene Hes. […] The right panel show dominant inhibition of Hes expression. After three consecutive transductions by either vector control or the dRdA1-4dOP mutant, the RNA were isolated and the transcripts of Hes measured by quantitative PCR. Data shown are means of triplicates and have been reproduced by two independent experiments. e. Notch I-C deltaRAM abrogates the c-Kit^+Sca-1^+ subset. […]

[2] = tested on: lymphoma CSC (c-Kit+Sca-1+ TGB lymphoma cells); test: as above; assay type: cell-based, mouse; settings: first and second rounds of sorted cells, 1000/well, drug 24 hours, colonies counted after 5 days
[3] = tested on: TGB lymphoma; test: In vivo tumorigenicity / therapy of transplanted TGB lymphoma in B10.BR mice (survival); settings: 9×10^5 lymphoma cells i.p., 5 injections at two day interval from day 8; less efficacy than echinomycin (FIG. 12b)
Method: FIG. 2. HIF addiction of CSC. a. Selective ablation of lymphoma CFU by echinomycin. The cultured lymphoma cells were treated with given doses of pharmacologically effective drugs in medium for 24 hours. After washing away the drugs, the cells were cultured in 1% methylcellulose-containing medium, and the colony number was counted after 6 to 7 days. Data shown are means and SD of triplicates and have been confirmed by 3 independent experiments. b. A reporter system for HIF activity in the TGB lymphoma. Diagram of lentiviral construct for HIF activity is shown on the top. Pause, a sequence fragment to eliminate the effect of lentiviral promoter; HRE, Hypoxia response element (SEQ ID NO: 20); TATA, TATA sequence (TATATAAT) (top). Lower left, validation of the reporter. HEK293 cells were transiently transfected with cDNA encoding mutant HIF1α (P402A/P577A) or vector control in conjunction with either HRE-driven EGFP reporter, HRE mutant reporter (SEQ ID NO: 21). The cells were analyzed by flow cytometry to detect EGFP expression 36 hours after transduction. […] IC50 of echinomycin in the inhibition of HIF1α activity in lymphoma CSC. […]
Given numbers of total tumor cells or sorted subsets were injected into either immune competent B10.BR mice or RAG-2^−/−BALB/c mice. […] The therapeutic effects were analyzed by Kaplan Meier survival analysis.

[4] = colonies counted after 6 to 7 days

Structure (SMILES) | effect on lymphoma CFU (colony number) [1, 4] | also measured
S=C(S)N1CCCC1 [PDTC] | no effect | 
COc1cc2c(cc1O)CC[C@@H]1[C@@H]2CC[C@]2(C)[C@@H](O)CC[C@@H]12 [2-methoxyestradiol] |  | inhibition of colony formation of sorted c-Kit+Sca-1+ tumor cells [2]: Inhibition; CFU of CSC ([1]; less efficacy than echinomycin (FIG. 12a)): reduced; tumor initiation of CSC [3]: reduced
CC(C)C[C@H](NC(=O)[C@H](Cc1ccccc1)C[C@@H](O)[C@H](Cc1ccccc1)NC(=O)OC(C)(C)C)C(=O)N[C@@H](Cc1ccccc1)C(N)=O [L-685, 458] |  | colony forming activity of lymphoma CSC ([1]; given doses for 24 hours, colonies counted after 6 to 7 days): potently blocked
C[S+]([O-])c1ccc(-c2nc(-c3ccncc3)c(-c3ccc(F)cc3)[nH]2)cc1 (stereo not shown) [SB203580] | no effect | 
COc1ccc2c(c1)c(C1=C(c3c[nH]c4ccccc34)C(=O)NC1=O)cn2CCCN(C)C [Gö6983] | no effect | 
CO[C@H]1C[C@@H]2CC[C@@H](C)[C@@](O)(O2)C(=O)C(=O)N2CCCC[C@H]2C(=O)O[C@H]([C@H](C)C[C@@H]2CC[C@@H](O)[C@H](OC)C2)CC(=O)[C@H](C)/C=C(\C)[C@@H](O)[C@@H](OC)C(=O)[C@H](C)C[C@H](C)/C=C/C=C/C=C/1C [Rapamycin] | no effect | 
COc1cccc(-c2cc(=O)c3ccccc3o2)c1N [PD98059] | no effect | 
O=S(=O)(NCCNC/C=C/c1ccc(Br)cc1)c1cccc2cnccc12 [H89] | no effect | 
Cn1cc(C2=C(c3ccc(Cl)cc3Cl)C(=O)NC2=O)c2ccccc21 [SB216763] | no effect | 
O=c1cc(N2CCOCC2)oc2c(-c3ccccc3)cccc12 [Ly294002] | no effect | 
OCC1OC(O)CC(O)C1O (stereo not shown) [2-DG] | no effect | 
